# Laboratory results as given in patent US11472778B2, “Hepatitis C virus NS3/4A protease inhibitors” (priority 2017, dated 2022).
# Read-outs that look alike come from different tables or passages of the source.
# Experiments:
# [1] = biological target: T1, GT1a D168A NS3/4A protease (UniProt P27958, D1194A, species not given); type: biochemical, Hepatitis C virus
# T1 construct: rows headed: Ki (nM) D168A; Ki D168A; other: D168A variant
# Outline: (§1)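 Enzyme (GT1a wild type or D168A mutant, 2 nM) was preincubated with inhibitor dilutions for 1 h at room temperature in pH 7.5 Tris buffer with glycerol, DTT, LDAO and 4% DMSO.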
# [2] = biological target: GT1a D168A NS3/4A protease; type: biochemical, Hepatitis C virus; conditions: fold change in Ki, D168A relative to WT
# Outline: as §1
# [3] = biological target: T2, wild-type GT1a NS3/4A protease (UniProt P27958); type: biochemical, Hepatitis C virus
# T2 construct: Ki WT; other: wild-type HCV NS3/4A protease
# Outline: as §1
# [4] = tested on: wild-type HCV replicon in Huh7 cells; test: Cell-based drug susceptibility (replicon) assay, wild-type; conditions: Hepatitis C virus, Huh-7, Table 9; read-out: Replicon EC50 (nM) WT
# Outline: (§2)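 Huh7 cells electroporated with replicon RNA and exposed to rising concentrations of protease inhibitor, with replication read as luciferase signal at 96 h. Reporter is a genotype 1b Con1 backbone containing genotype 1a H77 NS3, with mutants introduced by site-directed mutagenesis.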
# [5] = tested on: HCV replicon A156T variant in Huh7 cells; test: microbe, parasite or virus in culture; type: cell-based, Hepatitis C virus
# Outline: as §2
# [6] = tested on: HCV replicon D168A variant in Huh7 cells; test: microbe, parasite or virus in culture; type: cell-based, Hepatitis C virus
# Outline: as §2
# [7] = tested on: HCV replicon R155K variant in Huh7 cells; test: microbe, parasite or virus in culture; type: cell-based, Hepatitis C virus
# Outline: as §2
# [8] = tested on: HCV replicon D168V variant in Huh7 cells; test: microbe, parasite or virus in culture; type: cell-based, Hepatitis C virus
# Outline: as §2
# [9] = biological target: GT1a R155K NS3/4A protease (UniProt P27958, R1181K, species not given); type: biochemical, Hepatitis C virus
# Outline: (§3)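 2 nM NS3/4A protease (GT1a, R155K and D168A constructs) pre-incubated 1 h at room temperature with increasing inhibitor concentrations in 50 mM Tris pH 7.5, 5% glycerol, 10 mM DTT, 0.6 mM LDAO, 4% DMSO. Three independent data sets per inhibitor and construct; ΔG of binding derived from Ki as ΔG=RTlnKi.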
# [10] = biological target: GT1a R155K NS3/4A protease; type: biochemical, Hepatitis C virus; conditions: fold change in Ki, R155K relative to WT
# Outline: as §3
# [11] = tested on: drug resistant HCV variants (R155K, A156T, D168A, D168V); test: Replicon antiviral assays, collective statements on drug resistant variants; type: cell-based, Hepatitis C virus; conditions: range over all variants tested
# Protocol: Mutations (R155K, A516T, D168A and D168V) were constructed by site-directed mutagenesis using a Con1 (genotype 1b) luciferase reporter replicon containing the H77 (genotype 1a) NS3 sequence.
# Replicon RNA of each protease variant was introduced into Huh7 cells by electroporation. Replication was then assessed in the presence of increasing concentrations of protease inhibitors by measuring luciferase activity (relative light units) 96 h after electroporation.
# Mutations (R155K, D168A and A156T) were constructed by site-directed mutagenesis using a Con1 (genotype 1b) luciferase reporter replicon containing the H77 (genotype 1a) NS3 sequence.^6 Replicon RNA of each protease variant was introduced into Huh7 cells by electroporation. Replication was then assessed in the presence of increasing concentrations of protease inhibitors by measuring luciferase activity (relative light units) 96 h after electroporation.
compound,measurement,setting,value
"C=C[C@@H]1C[C@]1(NC(=O)[C@@H]1C[C@@H](Oc2nc3cc(OC)ccc3nc2C)CN1C(=O)[C@@H](NC(=O)OC1CCCC1)C(C)(C)C)C(=O)NS(=O)(=O)C1(C)CC1 [Compound 12b, Cyclopentyl ((S)-1-((2S,4R)-4-((7-methoxy-3-methylquinoxalin-2-yl)oxy)-2-(((1R,2S)-1-(((1-methylcyclopropyl)sulfonyl)carbamoyl)-2-vinylcyclopropyl)carbamoyl)pyrrolidin-1-yl)-3,3-dimethyl-1-oxobutan-2-yl)carbamate]",Ki,"[1]; read-out: Ki (nM) D168A, Table 8, linear inhibitors",140 ± 13 nM
same,Ki,"[1]; read-out: Ki D168A, D168A variant",140 ± 13 nM
same,Ki D168A (fold change),[2],20
same,Ki,"[3]; read-out: Ki (nM) WT, Table 8, linear inhibitors",7.1 ± 1.1 nM
same,Ki,"[3]; read-out: Ki WT, wild-type HCV NS3/4A protease",7.1 ± 1.1 nM
same,EC50,[4],4.5 nM
same,EC50,"[5]; Hepatitis C virus, Huh-7, read-out: Replicon EC50 (nM) A156T, Table 9",87 nM
same,Replicon EC50 (Fold change) A156T,"[5]; Table 9, relative to WT",(19) fold
same,EC50,"[6]; Hepatitis C virus, Huh-7, read-out: Replicon EC50 (nM) D168A, Table 9",45 nM
same,Replicon EC50 (Fold change) D168A,"[6]; Table 9, relative to WT",(10) fold
same,EC50,"[7]; Hepatitis C virus, Huh-7, read-out: Replicon EC50 (nM) R155K, Table 9",28 nM
same,Replicon EC50 (Fold change) R155K,"[7]; Table 9, relative to WT",(6.2) fold
same,EC50,"[8]; Hepatitis C virus, Huh-7, read-out: Replicon EC50 (nM) D168V, Table 9",59 nM
same,Replicon EC50 (Fold change) D168V,"[8]; Table 9, relative to WT",(13) fold
same,Ki,"[9]; read-out: Ki (nM) R155K, Table 8, linear inhibitors",10 ± 1.3 nM
same,Ki,"[9]; read-out: Ki R155K, R155K variant",10 ± 1.3 nM
same,Ki R155K (fold change),[10],1.4
same,fold loss in replicon potency against drug resistant variants compared to WT,[11],5-20 fold
